Data reported in PMC9396396, “Molecular and functional interactions of alpha-synuclein with Rab3a” (The Journal of Biological Chemistry, 2022).

System: T1, Rab3a-a-Syn fusion construct
T1 construct: single-chain fusion: 6-His-tag, Rab3a 15-186 (C137A, wild-type Q81), GSGS linker, alpha-synuclein 101-140 (not phosphorylated); pET15b, E. coli; with Alpha-synuclein
Experiment: malachite green phosphate release, Michaelis-Menten fit
Format: biochemical
Settings: pH 7.5, 20 mM Hepes, 2 mM MgCl2, 1 mM DTT, 37 °C; a-Syn C-terminal tail covalently fused; no free a-Syn, no SUV
Excerpt: malachite green phosphate release, Michaelis-Menten fit on Rab3a-a-Syn fusion construct

Km: 174 ± 46 µM
Structure (SMILES): Nc1nc2c(ncn2[C@@H]2O[C@H](COP(=O)(O)OP(=O)(O)OP(=O)(O)O)[C@@H](O)[C@H]2O)c(=O)[nH]1 [GTP]
